According to US5366980A, “Use of dextromethorphan and an oxidase inhibitor to treat dermatitis” (priority 1993, dated 1994):
pKi: −log10 of the molar value. “And” between values parts separate entries of the source, which are not always exact repeats. Identical values can stand only once. “Also recorded” adds a separate entry of the source. Counter-ions that a name gives are not always drawn.

How the values were obtained:
[1] = tested on: debrisoquin hydroxylase (sparteine monooxygenase); conditions: Inaba et al 1985, cited from earlier work
[2] = tested on: debrisoquin hydroxylase; test: Urinary DM/DR ratio with other antioxidants in specific patients (Example 5)
Source text: The second method involves sampling body fluids to compare the concentrations of DM and its primary metabolite, dextrorphan (DR). Although blood concentrations can be directly evaluated by drawing blood samples if desired, an easier and painless approach is to analyze urine samples. Blood or urine samples can be processed using methods such as high performance liquid chromatography (HPLC), as described in Example 5. […] The height of each peak, or the area under each peak, will indicate the quantity of each compound in the blood or urine sample. The heights of the DM and DR peaks are then divided, to determine the DM/DR ratio. The ratio which occurs after administration of a candidate antioxidant drug is compared to the DM/DR ratio in the same patient under control conditions (i.e., before administration of any antioxidant).
Preliminary Analysis of Other Antioxidants
To further evaluate that possibility, the Applicant arranged for chemical analyses of urine samples, using HPLC, in the labs of an independent investigator.

[3] = tested on: debrisoquin hydroxylase; test: Urinary DM/DR ratio after oral dextromethorphan without and with quinidine (Example 1); assay type: in vivo, human; conditions: 150 mg quinidine + 60 mg DM
Procedure: Since the research that led to this invention was done by a neurologist who was initially interested in finding out whether DM might be able to retard the progress of ALS, the initial studies were done on patients suffering from ALS, most of whom are adults more than 50 years old.
Six patients suffering from ALS were administered orally a single 60 mg dextromethorphan dose. Several hours later, a urine sample was collected, and the urine concentrations of dextromethorphan (DM) and dextrorphan (DR) were measured as described below to determine a DM/DR ratio. […] In a different week, 60 mg of DM and 150 mg of quinidine were orally administered to the same patients, and urinary DM and DR levels and DM/DR ratios were determined again.
DM and DR urinary levels without quinidine were determined by adding […] of thebaine as an internal standard to 1 mL of urine. To this was added 2000 units of beta-glucuronidase in 1 mL of acetate buffer (0.1M, pH 5.0). The mixture was incubated for 18 hours at 37° C. and then extracted by adding 1 mL of phosphate buffer (pH 12, 0.10M) and 7 mL of n-butanol/hexane (10:90 v/v). After mixing and centrifugation, the organic layer was transferred to a clean tube and acidified with 400 uL of 0.01 N HCL. 20 microliters (uL) of aqueous phase was injected into a high performance liquid chromatography (HPLC) system. The HPLC used a phenyl column equilibrated with a mobile phase of acetonitrile:water (51:49, v/v) containing 10 mM KHPO4, 10 mM hexane sulfonic acid, pH 4.0 (flow rate 1.2 mL/min). Detection of thebaine, dextromethorphan and dextrorphan was achieved by fluorescence (Kratos FS-980 Fluorometer) with an excitation wavelength of 228 nm and no emission cutoff filter.
A gas chromatograph/mass spectroscopy (gc/ms) assay was employed for determining dextromethorphan and dextrorphan levels in the presence of quinidine. Briefly, 0.5 ml urine samples were spiked with 500 nanograms (ng) of dimethacrine. The urine pH was adjusted to 5.0 with 0.1M acetate buffer (usually about 1.0 ml), and beta-glucuronidase was added (2000 units/ml urine). […]

[4] = Plasma concentration of DM 10-12 hours after oral dosing, without and with quinidine (Examples 2 and 3); assay type: in vivo, human; conditions: effect of quinidine on plasma DM, words
Procedure: Plasma Concentrations of DM
Five patients were orally administered 120 mg of DM, with no co-administration of quinidine. Between 10 and 12 hours later, blood was sampled, blood plasma was isolated by centrifugation, and the plasma was analyzed to determine the DM concentration using the thebaine/HPLC method.
During a different week, the same patients were orally administered 60 mg of DM (half the control dosage) and 150 mg of quinidine. Between 10 and 12 hours later, blood was sampled and the plasma was analyzed for DM using thebaine/HPLC.
Additional studies were undertaken using a range of dosages of DM to establish a dose-response curve that correlates the quantity of DM orally administered to a patient with blood plasma concentrations 10 to 12 hours later (determined as described in Example 2). All patients received 150 mg of quinidine daily. The results of those studies are shown in graphical form in FIG. 2, with mean values shown as open squares and standard deviation ranges shown by vertical bars. The ascending line through the median values is a linear approximation; a curve based on more extensive data would probably show a horizontal asymptote.

[5] = tested on: liver cell preparations; conditions: Broly et al 1989; cited from earlier work
[6] = tested on: ALS patients; conditions: DM up to about 300 mg/day or higher; quinidine in prolonged QT interval; cited from earlier work
[7] = tested on: sigma receptors; conditions: reportedly; cited from earlier work
[8] = tested on: N-methyl-D-aspartate (NMDA) receptors; conditions: reportedly; cited from earlier work
[9] = tested on: neuronal calcium channels; conditions: reportedly; Carpenter et al 1988; cited from earlier work

Structure (SMILES) | In vitro activity in inhibiting debrisoquin hydroxylase [1] | also measured
COC(=O)[C@@H]1[C@H]2C[C@H]3c4[nH]c5ccccc5c4CCN3C[C@@H]2CC[C@@H]1O [yohimbine] | significant in vitro activity; also recorded: relatively potent | 
CC[C@H]1[C@@H]2C[C@H]3[C@@H]4N(C)c5ccccc5[C@]45C[C@@H]([C@H]2[C@H]5O)N3[C@@H]1O [ajmaline] | significant in vitro activity; also recorded: relatively potent | 
C=C[C@H]1C[N@@]2CC[C@H]1C[C@H]2[C@H](O)c1ccnc2ccc(OC)cc12 [quinine] | significant in vitro activity | 
CC(CCc1ccccc1)NCC(O)c1ccc(O)c(C(N)=O)c1 (stereo not drawn) [labetalol] | significant in vitro activity | 
C=C[C@H]1C[N@@]2CC[C@H]1C[C@H]2[C@H](O)c1ccnc2ccc(OC)cc12 [quinine sulfate] |  | DM/DR ratio (antioxidant) ([2]; urine, HPLC, antioxidant in brackets, preliminary, one value per patient): 0.09 and 0.05
O=C(CCCN1CCC(O)(c2ccc(Cl)cc2)CC1)c1ccc(F)cc1 [haloperidol] | significant in vitro activity; also recorded: relatively potent | 
NC(=O)C1(N2CCCCC2)CCN(CCCC(=O)c2ccc(F)cc2)CC1 [pipamperone] | significant in vitro activity; also recorded: relatively potent | 
Cc1cccc(C)c1OCC(C)N (stereo not drawn) [mexiletine] | significant in vitro activity | 
C=C[C@H]1C[N@@]2CC[C@H]1C[C@@H]2[C@@H](O)c1ccnc2ccc(OC)cc12 [quinidine] | most powerful of these inhibitors; also recorded: most potent inhibitor of the sparteine monooxygenase enzyme; also recorded: potent inhibitor of the debrisoquin hydroxylase enzyme | Increase of DM/DR ratio, all test subjects ([3]; all test subjects): at least 2 orders of magnitude; Increase of DM/DR ratio, usually ([3]; usual case): more than 3 orders of magnitude; DM plasma level, with or without quinidine [4]: major increase in the concentration of DM in the blood plasma; also recorded: pronounced effect in increasing and stabilizing the quantity of DM circulating in the blood; also recorded: highly effective in increasing DM concentrations; pKi ([1]; in vitro, read-out: Ki (Michaelis-Menton inhibition)): 7.22; DM oxidation / metabolism in liver cell preparations [5]: suppresses DM oxidation in liver cell preparations; Adverse effects (general knowledge) [6]: cardiac arrest (which can be fatal)
CN1[C@@H](CC(=O)c2ccccc2)CCC[C@H]1C[C@H](O)c1ccccc1 [lobeline] | significant in vitro activity; also recorded: relatively potent | 
CC(C)NCC(O)COc1cccc2ccccc12 (stereo not drawn) [propranolol] | significant in vitro activity | 
COc1ccc(Cc2nccc3cc(OC)c(OC)cc23)cc1OC [papaverine] | significant in vitro activity | 
CN1CC[C@@]23CCCC[C@@H]2[C@@H]1Cc1ccc(O)cc13 [dextrorphan] |  | Activity at sigma receptors [7]: sigma agonists; Activity at NMDA receptors [8]: NMDA antagonists; Activity at neuronal calcium channels [9]: calcium channel antagonists
CC(C)(C)NC[C@H](O)COc1nsnc1N1CCOCC1 [timolol] | significant in vitro activity | 
COCCc1ccc(OCC(O)CNC(C)C)cc1 (racemic) [metaprolol] | significant in vitro activity | 
CNCCC=C1c2ccccc2CCc2ccccc21 [nortriptyline] | significant in vitro activity | 
O=c1[nH]c2ccccc2n1CCCN1CCC(n2c(=O)[nH]c3cc(Cl)ccc32)CC1 [domperidone] | significant in vitro activity | 
C=CCOc1ccccc1OCC(O)CNC(C)C (stereo not drawn) [oxprenolol] | significant in vitro activity | 
CNCCC(Oc1ccc(C(F)(F)F)cc1)c1ccccc1 (stereo not drawn) [fluoxetine] |  | Effect on DM concentrations in the blood / debrisoquin hydroxylase oxidative activity ([2]; ALS patient taking fluoxetine, research by the Applicant): can suppress the oxidative activity of the debrisoquin hydroxylase enzyme, albeit at a potency substantially below that of quinidine; also recorded: effective in increasing DM concentrations in the blood
